What was measured:
[1] = biological target: GDP-loaded KRAS G12D (Homo sapiens, UniProt P01116, G12D); experiment: KRAS G12D (GDP) Biochemical Assay (TR-FRET probe displacement); assay type: binding; settings: 0.5 nM enzyme, 2 hours at room temperature
Experimental: Example A. KRAS G12D (GDP) Biochemical Assay
Compounds were tested for binding to GDP-loaded KRAS G12D in a 384-well assay format using a TR-FRET probe displacement assay in buffer consisting of 50 mM Hepes (pH 7.4), 150 mM NaCl, 5 mM MgCl2 and 0.005% Tween-20. […] Compounds were serially diluted (1:3) in DMSO. The LabCyte ECHO Acoustic dispenser system was used to pre-spot the assay plates (384-well Non-Binding Surface plates, Corning, Catalog #3824) with 50 nL of compound. The compounds were pre-incubated with 5 μL of 2× final enzyme concentration for 30 minutes before adding 5 μL of 2× final concentration of Eu-streptavidin and TR-FRET probe (10 μL final reaction volume). The plates were incubated at room temperature for 2 hours before measuring TR-FRET ratio on the Envision plate reader. IC50 values were defined as the compound concentration that causes a 50% decrease in TR-FRET ratio and were calculated using a sigmoidal dose-response model to generate curve fits.

[2] = system: GP2D (KRAS G12D) cells; experiment: 2D Cell Viability Assay (CellTiter-Glo); assay type: cell-based; settings: 4 days, CellTiter-Glo luminescence
Experimental: Example B. 2D Cell Viability Assay
Compounds were tested in a 384-well format for their ability to inhibit the viability of GP2D (KRAS G12D) cells in 2D assays. Compounds were serially diluted (1:3) in DMSO. The LabCyte ECHO Acoustic dispenser system was used to pre-spot assay plates with 200 nL of test molecule per well. 1000 cells/well (40 μL volume per well) in RPMI medium with 10% FBS, and Penicillin-Streptomycin-Glutamine were plated in pre-spotted 384-well plates (Greiner, Catalog #781076) on the BioTEK EL406 liquid dispenser with a 5 μL dispensing cassette (BioTek 7170011). The plates were incubated at 37° C., 5% CO2 for 4 days before addition of CellTiter-Glo (CTG) reagent and measurement of luminescence signal. EC50 values were defined as the compound concentration that causes a 50% decrease in luminescence signal and were calculated using a sigmoidal dose-response model to generate curve fits.

Sequence of GDP-loaded KRAS G12D (P01116 1-188 isoform P01116-2 G12D): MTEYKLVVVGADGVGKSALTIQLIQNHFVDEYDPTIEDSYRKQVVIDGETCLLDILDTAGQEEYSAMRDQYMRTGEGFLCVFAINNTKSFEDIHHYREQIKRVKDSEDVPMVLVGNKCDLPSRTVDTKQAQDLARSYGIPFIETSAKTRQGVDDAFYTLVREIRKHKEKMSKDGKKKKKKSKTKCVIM

C#Cc1c(F)ccc2cc(N)nc(-c3c(F)c4c5c(nc(OC[C@@]67CCCN6C[C@H](F)C7)nc5c3F)N3C[C@H]5CC[C@H](N5)[C@H]3CC4)c12 (atropisomer, axis not shown; (aR)) [Example 62, 1-((1S,4R,11S,14aR)-10,12-difluoro-8-(((2R,7aS)-2-fluorotetrahydro-1H-pyrrolizin-7a(5H)-yl)methoxy)-1,2,3,4,5,13,14,14a-octahydro-1,4-epiminoazepino[1′,2′:1,7]azepino[2,3,4-de]quinazolin-11-yl)-8-ethynyl-7-fluoroisoquinolin-3-amine]
IC50 [1]: 0.03 nM | EC50 ([2]; GP2d, 96 h): 2.5 nM

C[C@H]1Cc2c(F)c(-c3ccc(F)c4sc(N)c(C#N)c34)c(F)c3nc(OC[C@@]45CCCN4C[C@H](F)C5)nc(c23)N2C[C@H]3CC[C@H](N3)[C@H]12 (atropisomer, axis not shown; (aS)) [Example 34, (S)-2-amino-4-((1S,4R,14S,14aS)-10,12-difluoro-8-(((2R,7aS)-2-fluorotetrahydro-1H-pyrrolizin-7a(5H)-yl)methoxy)-14-methyl-1,2,3,4,5,13,14,14a-octahydro-1,4-epiminoazepino[1′,2′:1,7]azepino[2,3,4-de]quinazolin-11-yl)-7-fluorobenzo[b]thiophene-3-carbonitrile]
IC50 [1]: 0.08 nM | EC50 ([2]; GP2d, 96 h): 0.5 nM

C#Cc1c(F)ccc2cc(N)nc(-c3c(F)c4c5c(nc(OC[C@@]67CCCN6C[C@H](F)C7)nc5c3F)N3C[C@H]5CC[C@H](N5)[C@@H]3[C@@H](C)C4)c12 (atropisomer, axis not shown; (aS)) [Example 45, 1-((1S,4R,11S,14S,14aS)-10,12-difluoro-8-(((2R,7aS)-2-fluorotetrahydro-1H-pyrrolizin-7a(5H)-yl)methoxy)-14-methyl-1,2,3,4,5,13,14,14a-octahydro-1,4-epiminoazepino[1′,2′:1,7]azepino[2,3,4-de]quinazolin-11-yl)-8-ethynyl-7-fluoroisoquinolin-3-amine]
IC50 [1]: 0.04 nM | EC50 ([2]; GP2d, 96 h): 2.2 nM

C#Cc1c(F)ccc2cc(N)nc(-c3c(Cl)c4c5c(nc(OC[C@@]67CCCN6C[C@H](F)C7)nc5c3F)N3C[C@H]5CC[C@H](N5)[C@@H]3[C@@H](C)C4)c12 (atropisomer, axis not shown; (aS)) [Example 48, 1-((1S,4R,11R,14S,14aS)-12-chloro-10-fluoro-8-(((2R,7aS)-2-fluorotetrahydro-1H-pyrrolizin-7a(5H)-yl)methoxy)-14-methyl-1,2,3,4,5,13,14,14a-octahydro-1,4-epiminoazepino[1′,2′:1,7]azepino[2,3,4-de]quinazolin-11-yl)-8-ethynyl-7-fluoroisoquinolin-3-amine]
EC50 ([2]; GP2d, 96 h): 8.1 nM

C[C@H]1Cc2c(Cl)c(-c3ccc(F)c4sc(N)c(C#N)c34)c(F)c3nc(OC[C@@]45CCCN4C[C@H](F)C5)nc(c23)N2C[C@H]3CC[C@H](N3)[C@H]12 (atropisomer, axis not shown; (aS)) [Example 52, 2-amino-4-((1S,4R,11R,14S,14aS)-12-chloro-10-fluoro-8-(((2R,7aS)-2-fluorotetrahydro-1H-pyrrolizin-7a(5H)-yl)methoxy)-14-methyl-1,2,3,4,5,13,14,14a-octahydro-1,4-epiminoazepino[1′,2′:1,7]azepino[2,3,4-de]quinazolin-11-yl)-7-fluorobenzo[b]thiophene-3-carbonitrile]
IC50 [1]: 0.03 nM

C[C@H]1Cc2c(Cl)c(-c3ncc(F)c4sc(N)c(C#N)c34)c(F)c3nc(OC[C@@]45CCCN4C[C@H](F)C5)nc(c23)N2C[C@H]3CC[C@H](N3)[C@H]12 (atropisomer, axis not shown; (aS)) [Example 56, 2-amino-4-((1S,4R,11S,14S,14aS)-12-chloro-10-fluoro-8-(((2R,7aS)-2-fluorotetrahydro-1H-pyrrolizin-7a(5H)-yl)methoxy)-14-methyl-1,2,3,4,5,13,14,14a-octahydro-1,4-epiminoazepino[1′,2′:1,7]azepino[2,3,4-de]quinazolin-11-yl)-7-fluorothieno[3,2-c]pyridine-3-carbonitrile]
IC50 [1]: 0.11 nM | EC50 ([2]; GP2d, 96 h): 2 nM

C[C@H]1Cc2c(Cl)c(-c3cccc4sc(N)c(C#N)c34)c(F)c3nc(OC[C@@]45CCCN4C[C@H](F)C5)nc(c23)N2C[C@H]3CC[C@H](N3)[C@H]12 (atropisomer, axis not shown; (aS)) [Example 57, 2-amino-4-((1S,4R,11R,14S,14aS)-12-chloro-10-fluoro-8-(((2R,7aS)-2-fluorotetrahydro-1H-pyrrolizin-7a(5H)-yl)methoxy)-14-methyl-1,2,3,4,5,13,14,14a-octahydro-1,4-epiminoazepino[1′,2′:1,7]azepino[2,3,4-de]quinazolin-11-yl)benzo[b]thiophene-3-carbonitrile]
IC50 [1]: 0.06 nM | EC50 ([2]; GP2d, 96 h): 0.94 nM

Cc1cc(N)nc(-c2c(Cl)c3c4c(nc(OC[C@@]56CCCN5C[C@H](F)C6)nc4c2F)N2C[C@H]4CC[C@H](N4)[C@H]2CCC3)c1C(F)(F)F (single isomer, unassigned) [Example 2]
IC50 [1]: 8.8 nM | EC50 ([2]; GP2d, 96 h): 65 nM

Cc1cc(N)nc(-c2c(Cl)c3c4c(nc(OC[C@@]56CCCN5C[C@H](F)C6)nc4c2F)N2C[C@H]4CC[C@H](N4)[C@H]2CCC3)c1C(F)(F)F (single isomer, unassigned) [Example 3]
IC50 [1]: 87 nM | EC50 [2]: > 100 nM

Cc1cc(N)nc(-c2c(Cl)c3c4c(nc(OC[C@@]56CCCN5C[C@H](F)C6)nc4c2F)N2C[C@H]4CC[C@H](N4)[C@H]2CC3)c1C(F)(F)F (single isomer, unassigned) [Example 5]
IC50 [1]: 1.1 nM | EC50 [2]: 14 nM

Cc1cc(N)nc(-c2c(Cl)c3c4c(nc(OC[C@@]56CCCN5C[C@H](F)C6)nc4c2F)N2C[C@H]4CC[C@H](N4)[C@H]2CC3)c1C(F)(F)F (single isomer, unassigned) [Example 6]
IC50 [1]: 0.05 nM | EC50 [2]: 1.2 nM

Cc1cc(N)nc(-c2c(F)c3c4c(nc(OC[C@@]56CCCN5C[C@H](F)C6)nc4c2F)N2C[C@H]4CC[C@H](N4)[C@H]2CC3)c1C(F)(F)F (single isomer, unassigned) [Example 21]
IC50 [1]: 2 nM | EC50 [2]: 12 nM

Cc1cc(N)nc(-c2c(F)c3c4c(nc(OC[C@@]56CCCN5C[C@H](F)C6)nc4c2F)N2C[C@H]4CC[C@H](N4)[C@H]2CC3)c1C(F)(F)F (single isomer, unassigned) [Example 22]
IC50 [1]: 0.08 nM | EC50 [2]: 1.6 nM

C[C@H]1Cc2c(F)c(-c3ncc(F)c4sc(N)c(C#N)c34)c(F)c3nc(OC[C@@]45CCCN4C[C@H](F)C5)nc(c23)N2C[C@H]3CC[C@H](N3)[C@H]12 (single isomer, unassigned) [Example 50]
IC50 [1]: 0.12 nM | EC50 ([2]; GP2d, 96 h): 2.6 nM

C[C@H]1Cc2c(F)c(-c3ncc(F)c4sc(N)c(C#N)c34)c(F)c3nc(OC[C@@]45CCCN4C[C@H](F)C5)nc(c23)N2C[C@H]3CC[C@H](N3)[C@H]12 (single isomer, unassigned) [Example 51]
IC50 [1]: 0.8 nM | EC50 [2]: 3.4 nM

N#Cc1c(N)sc2c(F)ccc(-c3c(F)c4c5c(nc(OC[C@@]67CCCN6C[C@H](F)C7)nc5c3F)N3C[C@H]5CC[C@H](N5)[C@H]3CC4)c12 (single isomer, unassigned) [Example 59]
IC50 [1]: 4.2 nM | EC50 [2]: 24 nM

N#Cc1c(N)sc2c(F)ccc(-c3c(F)c4c5c(nc(OC[C@@]67CCCN6C[C@H](F)C7)nc5c3F)N3C[C@H]5CC[C@H](N5)[C@H]3CC4)c12 (single isomer, unassigned) [Example 60]
IC50 [1]: 0.03 nM | EC50 [2]: 1.8 nM

Reference: patent publication US20250101042A1, “KRAS G12D MODULATING COMPOUNDS” (Gilead Sciences, Inc., priority 2023, published 2025)
